Residues, ends and D or L forms follow the SMILES beside them. *: point of attachment. Cbz = O=C(OCc1ccccc1)*
What was measured:
[1] = target: T1, proteasome (post-glutamic hydrolase activity) of MNT1 cells (Homo sapiens, UniProt P28072); assay: Proteasome LLE (post-glutamic hydrolase) activity assay on lyzates of treated MNT1 cells; format: cell-based; settings: for Proteasome activity at 72 hours, Post-glutamic hydrolase: MNT1 cells lyzed 72 hours after treatment, palmitic or linoleic acid 25 μM, Phaeodactylum 5 μg/ml, Mg132 120 nM where stated; for post-glutamic hydrolase peptidase activity of the proteasome, change in words: 72 hours after addition, MNT-1 melanocytes, FIG. 1B
T1 construct: introduce in duplicate a fixed volume of cell lyzate; endogenous in cells; host or cells: MNT1 human melanocyte line (lysate)
T1 sequence (P28072 1-239): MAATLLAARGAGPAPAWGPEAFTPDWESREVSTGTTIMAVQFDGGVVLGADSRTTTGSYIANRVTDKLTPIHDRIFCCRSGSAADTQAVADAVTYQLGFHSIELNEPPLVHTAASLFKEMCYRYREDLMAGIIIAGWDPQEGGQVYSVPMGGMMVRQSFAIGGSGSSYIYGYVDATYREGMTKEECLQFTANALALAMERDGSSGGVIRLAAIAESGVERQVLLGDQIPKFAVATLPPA
Procedure: 2.1 Treatment of MNT1 Cells (Human Melanocyte Cell Lines) in Order to Assay the Proteasome and Tyrosinase Activities
MNT1, 10^6 cells/dish 35 mm in diameter, in triplicate
Treatment on D1 • Linoleic acid 25 μM • Palmitic acid 25 μM • Phaeodactylum 5 μg/ml
+1% BSA+Vitamin E 50 μM+Vitamin C 1 mM • Linoleic acid 25 μM • Palmitic acid 25 μM • Phaeodactylum 5 μg/ml
Stirring with a magnetic bar at 37° C. for 1 hour • 2nd treatment on D4
+Cycloheximide 1 μg/ml (protein synthesis inhibitor)
+120 nM Mg132 for the assay of the tyrosinase activity. • Preparation of the lyzates after 4 hours
2 rinses with PBS (phosphate-buffered saline)
(§1) On a bed of ice; recovery in 150 μl of lysis buffer by scraping.
Freezing at ±20° C. • Protein assay via the Bradford method • Proteasome activity assay
(§2) The cells are rinsed twice with PBS and each peptidase activity of the proteasome is then determined by using a fluorogenic peptide substrate specific for each of the activities, in the presence and in the absence of a specific proteasome inhibitor, MG 132 (Leu-Leu-Leucinal). The peptide substrate products are the following: Leu-Leu-Val-Tyr-amc (LLVY-amc) for the chymotrypsin-like activity, Leu-Leu-Glu-na (LLE-na) for the post-glutamic hydrolase activity and Leu-Ser-Thr-Arg-amc (LSTR-amc) for the trypsin-like activity. The principle of the assay consists in monitoring over time the increase in fluorescence due to the release of the fluorophores aminomethylcoumarin or β-naphthylamine from the fluorogenic peptides.
b)—LLE Activity (Post-Glutamic Hydrolase)
The following cleavage reaction is studied: • Proteasome (LLE activity • (post-glutamic hydrolase) N-CBZ-LLE-NA→N-CBZ-LLE-+NA fluorescent
Reading on a spectrofluorimeter at an excitation wavelength of 333 nm and an emission wavelength of 410 nm.
The process is performed as follows: • In a 96-well plate, introduce in duplicate a fixed volume of cell lyzate (determined from the lowest protein concentration of the samples, which should correspond to 20 μg of protein) and make up to 100 μl with TRIS buffer. • Add 100 μl of LLE-NA substrate prediluted to 300 μM in the TRIS buffer (150 μM final). • Take the spectrofluorimeter readings at an excitation wavelength of 340 nm and an emission wavelength of 410 nm at a gain of 83 every 2 minutes, for 35 minutes.
The raw results are expressed in F.U./min.
(§3) The assay is performed on 200 μl of reaction volume containing a volume V of cell lyzate set as a function of the protein concentrations of the lyzates.
From the calibration range, the activity may be expressed in pmol of MCA released/minute/mg of protein:
(§4) For the assay of the proteasome activities, the cells were lyzed at 72 hours after the cell treatment, and the protein concentration was determined.

[2] = target: T2, proteasome (chymotrypsin-like activity) of MNT1 cells (Homo sapiens, UniProt P28074); assay: Proteasome LLVY (chymotrypsin-like) activity assay on lyzates of treated MNT1 cells; format: cell-based; settings: for Proteasome activity at 72 hours, Chymotrypsin-like: MNT1 cells lyzed 72 hours after treatment, palmitic or linoleic acid 25 μM, Phaeodactylum 5 μg/ml, Mg132 120 nM where stated; for chymotrypsin-like peptidase activity of the proteasome, change in words: 72 hours after addition, MNT-1 melanocytes, FIG. 1A
T2 construct: introduce in duplicate a fixed volume of cell lyzate; endogenous in cells; host or cells: MNT1 human melanocyte line (lysate)
T2 sequence (P28074 60-263): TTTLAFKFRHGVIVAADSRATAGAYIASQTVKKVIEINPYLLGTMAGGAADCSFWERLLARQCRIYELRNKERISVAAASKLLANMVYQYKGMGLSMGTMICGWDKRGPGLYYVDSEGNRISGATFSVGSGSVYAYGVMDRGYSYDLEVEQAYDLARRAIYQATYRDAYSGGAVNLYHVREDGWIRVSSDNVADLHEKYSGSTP
Procedure: 2.1 Treatment of MNT1 Cells (Human Melanocyte Cell Lines) in Order to Assay the Proteasome and Tyrosinase Activities MNT1, 10^6 cells/dish 35 mm in diameter, in triplicate
Treatment on D1 • Linoleic acid 25 μM • Palmitic acid 25 μM • Phaeodactylum 5 μg/ml +1% BSA+Vitamin E 50 μM+Vitamin C 1 mM • Linoleic acid 25 μM • Palmitic acid 25 μM • Phaeodactylum 5 μg/ml Stirring with a magnetic bar at 37° C. for 1 hour • 2nd treatment on D4 +Cycloheximide 1 μg/ml (protein synthesis inhibitor)
+120 nM Mg132 for the assay of the tyrosinase activity. • Preparation of the lyzates after 4 hours 2 rinses with PBS (phosphate-buffered saline)
as §1
as §2, with “Freezing at […]. • Protein assay via the Bradford method • Proteasome activity assay The cells” for “The cells”, “fluorogenic peptides. […]” for “fluorogenic peptides.”
a) LLVY activity (chymotrypsin-like) a.1—Principle • Proteasome (LLVY activity • (chymotrypsin-like)) N-Succinyl-LLVY-MCA→N-Succinyl-LLVY+MCA fluorescent Reading with a spectrofluorimeter at an excitation wavelength of 350 nm and an emission wavelength of 440 nm.
The process is performed as follows: • Into a 96-well plate, introduce in duplicate a fixed volume of cell lyzate (determined from the lowest protein concentration of the samples, which should correspond to 20 μg of protein) and make up to 100 μl with TRIS buffer. • Add 100 μl of LLVY-MCA substrate prediluted to 25 μM in the TRIS buffer (12.5 μM final). • take the spectrofluorimeter readings at an excitation wavelength of 355 nm and an emission wavelength of 460 nm with a gain of 40, every 2 minutes for 30 minutes.
The raw results are expressed in F.U./minute, F.U. denoting the values supplied by the machine, expressed in fluorescence units.
as §3
From the calibration range, the activity may be expressed as follows, in pmol of MCA released/minute/mg of protein: […]
as §4

SMILES | Proteasome activity at 72 hours, Post-glutamic hydrolase [1] [nmol/min/mg] | Proteasome activity at 72 hours, Chymotrypsin-like [2] [pmol/min/mg] | post-glutamic hydrolase peptidase activity of the proteasome, change in words [1] | chymotrypsin-like peptidase activity of the proteasome, change in words [2]
CC(C)C[C@@H](C=O)NC(=O)[C@H](CC(C)C)NC(=O)[C@H](CC(C)C)NC(=O)OCc1ccccc1 [Control + Mg132, Z-Leu-Leu-Leu-CHO] (Cbz-Leu-Leu-Leu-aldehyde) | 42 ± 5 | 3 ± 0.3 |  | 
CCCCC/C=C\C/C=C\CCCCCCCC(=O)O [Linoleic acid] | 78 ± 3.6 | 6.3 ± 0.37 | increase and do so significantly | increase and do so significantly
CCCCCCCCCCCCCCCC(=O)O [Palmitic acid] | 54 ± 6 | 3 ± 0.37 | reduced | reduced
